Test results: patent US20240116923A1, “USE OF INDOLE, 6- AND 7-AZAINDOLE DERIVATIVES AS INHIBITORS OF FERROPTOSIS REGULATED CELL DEATH” (Seabelife, priority 2021, published 2024)
pEC50: −log10 of the molar value. Read-outs that look alike come from different tables or passages of the source.

Legend:
[1] = test system: human neuroblastoma cell line SH-SY5Y; experiment: Neurotoxicity assay, SH-SY5Y cells + erastin or RSL3, MTS cell viability; assay type: cell-based; settings: Homo sapiens
Protocol: (§1) The excitotoxicity model used was the mouse hippocampal neuronal HT22 cells treated with glutamate [Dixon et al., Cell, 2012, 149(5), 1060-1072]. Ferroptosis and oxidative stress are both associated in this glutamate-induced cell death [Chu et al., Neural Regen. Res., 2020, 15(3), 528-536]. Phenotypic screening was also carried out with additional cell death inducers, erastin and RSL3 ((1S,3R)-Ras-selective lethal), in HT22 and SH-SY5Y (human neuroblastoma cells). Erastin and RSL3 are well described molecules, used as chemical tools for the study of ferroptosis regulation and neuronal pathologies [Lewerenz et al., Front. Neurosci., 2018, 12: 214; Reichert et al., Int. J. Mol. Sci., 2020, 21, 8765].
(§2) Mouse hippocampal neuronal cell line (HT22, ATCC) and human neuroblastoma cell line (SH-SY5Y, ATCC) were grown in Dulbecco's Modified Eagle Medium (DMEM, Gibco) supplemented with 10% fetal bovine serum (FBS, Gibco) at 37° C. under 5% CO2 atmosphere. Neurotoxicity was induced by erastin or RSL3 and excitotoxicity was induced by glutamate. Cells were seeded in 96-well plates at 5,000 and 10,000 cells/well for HT22 and SH-SY5Y cell lines, respectively. Cells were treated with 0.5-1 μM Erastin (HT22 cells) or 10 μM Erastin (SH-SY5Y cells) or 5-10 mM glutamate (HT22 cells) or 0.5 μM RSL3 (HT22 cells) or 5 μM RSL3 (SH-SY5Y cells) for 24 h in presence of increasing concentrations of inhibitors. Cells treated with DMSO only were used as controls. Cell viability was assessed by MTS assay (CellTiter 96 AQueous One Solution Cell Proliferation assay, Promega).
(§3) In FIGS. 1, 2A and 2B, an inhibitor was added to HT22 (FIG. 1: compound 6) or SH-SY5Y (FIG. 2A: compound 6; FIG. 2B: compound 25) cells in the presence or not of cell death inducers (erastin, glutamate or RSL3). […] EC50 values for compounds 1-28 were calculated from dose-response curves using Graphpad Prism software.

[2] = test system: mouse hippocampal neuronal cell line HT22; experiment: Neurotoxicity and excitotoxicity assay, HT22 cells + glutamate, erastin or RSL3, MTS cell viability; assay type: cell-based; settings: Mus musculus
Protocol: as §1, §2, §3

[3] = SH-SY5Y, 24 h, read-out: EC50 SH-SY5Y Erastin
[4] = SH-SY5Y, 24 h, read-out: EC50 SH-SY5Y RSL3
[5] = HT-22, 24 h, read-out: EC50 HT22 Erastin
[6] = HT-22, 24 h, read-out: EC50 HT22 Glutamate
[7] = HT-22, 24 h, read-out: EC50 HT22 RSL3
[8] = SH-SY5Y cells, 5 μM RSL3, 24 h, MTS, read-out: EC50 SH-SY5Y RSL3
[9] = SH-SY5Y cells, 10 μM Erastin, 24 h, MTS, read-out: EC50 SH-SY5Y Erastin
[10] = HT-22, HT22 cells, 0.5 μM RSL3, 24 h, MTS, read-out: EC50 HT22 RSL3
[11] = HT-22, HT22 cells, 0.5-1 μM Erastin, 24 h, MTS, read-out: EC50 HT22 Erastin
[12] = HT-22, HT22 cells, 5-10 mM glutamate, 24 h, MTS, read-out: EC50 HT22 Glutamate

Row | SMILES | pEC50 [1, 3] | pEC50 [1, 4] | pEC50 [2, 5] | pEC50 [2, 6] | pEC50 [2, 7] | pEC50 [1, 8] | pEC50 [1, 9] | pEC50 [2, 10] | pEC50 [2, 11] | pEC50 [2, 12]
1 | NCC(=O)Oc1ccc(-c2cc3cccnc3[nH]2)cc1 [Compound 8, 4-(1H-pyrrolo[2,3-b]pyridin-2-yl)phenyl glycinate] | 4.67 | 5.22 | < 4.60 | < 4.60 | < 4.30 |  |  |  |  | 
2 | Oc1ccc(-c2cc3ccc(Cl)nc3[nH]2)cc1 [Compound 37, 4-(6-chloro-1H-pyrrolo[2,3-b]pyridin-2-yl)phenol] |  |  |  |  |  | 5.91 | 5.15 | 5.04 | 4.93 | 
3 | CCOc1ccc(-c2cc3ccncc3[nH]2)cc1 [Compound 4, 2-(4-ethoxyphenyl)-1H-pyrrolo[2,3-c]pyridine] |  |  |  |  |  | 5.27 | 5.12 | 4.56 | < 4.60 | < 4.60
4 | Oc1ccc2[nH]c(-c3ccc(OCc4ccccc4)cc3)cc2c1 [Compound 32, 2-(4-(benzyloxy)phenyl)-1H-indol-5-ol] |  |  |  |  |  |  |  | 6.00 | 5.70 | 
5 | CCOc1ccc(-c2[nH]c3ncccc3c2CN2CCN(C)CC2)cc1 [Compound 16, 2-(4-ethoxyphenyl)-3-((4-methylpiperazin-1-yl)methyl)-1H-pyrrolo[2,3-b]pyridine] |  |  |  |  |  |  | < 4.30 |  |  | 
6 | CCOc1ccc(-c2[nH]c3ncccc3c2I)cc1 [Compound 17, 2-(4-ethoxyphenyl)-3-iodo-1H-pyrrolo[2,3-b]pyridine] |  |  |  |  |  |  | < 4.30 |  |  | 
7 | CCOc1ccc(-c2[nH]c3ncccc3c2C(O)C(F)(F)F)cc1 (stereo not shown) [Compound 18, 1-(2-(4-ethoxyphenyl)-1H-pyrrolo[2,3-b]pyridin-3-yl)-2,2,2-trifluoroethan-1-ol] |  |  |  |  |  |  | < 4.30 |  |  | 
8 | COc1ccc(-c2ccc3cc(-c4ccc(O)cc4)[nH]c3n2)cn1 [Compound 39, 4-(6-(6-methoxypyridin-3-yl)-1H-pyrrolo[2,3-b]pyridin-2-yl)phenol] |  |  |  |  |  | 5.83 | 5.23 | 4.79 | 4.79 | 
9 | CCOc1ccc(-c2cc3cccnc3n2CCN2CCOCC2)cc1 [Compound 20, 4-(2-(2-(4-ethoxyphenyl)-1H-pyrrolo[2,3-b]pyridin-1-yl)ethyl)morpholine] |  |  |  |  |  | 4.56 | 4.67 | 4.78 | 5.29 | 4.95
10 | CC(C)(C)OC(=O)n1c(-c2ccc(O)cc2)cc2ccccc21 [Compound 29, tert-butyl 2-(4-hydroxyphenyl)-1H-indole-1-carboxylate] |  |  |  |  |  | 5.84 |  | 5.40 | 5.08 | 5.26
11 | CCOc1ccc(-c2cc3ccncc3n2O)cc1 [Compound 5, 2-(4-ethoxyphenyl)-1Hpyrrolo[2,3-c]pyridin-1-ol] |  |  |  |  |  |  | 6.28 | 5.55 | 5.49 | 5.44
12 | CCOc1ccc(-c2cc3cccn(Cc4ccccc4)c-3n2)cc1 [Compound 26, 7-benzyl-2-(4-ethoxyphenyl)-7H-pyrrolo[2,3-b]pyridine] |  |  |  |  |  | 4.47 | 5.00 |  | 4.90 | 6.09
13 | CCOc1ccc(-c2cc3cccn(C(=O)N(C(C)C)C(C)C)c-3n2)cc1 [Compound 24, 2-(4-ethoxyphenyl)-N,N-diisopropyl-7H-pyrrolo[2,3-b]pyridine-7-carboxamide] | 4.96 | 5.46 | < 4.30 | < 4.30 | 4.68 |  |  |  |  | 
14 | CCOc1ccc(-c2cc3ccc(Cc4ccncn4)nc3[nH]2)cc1 [Compound 42] |  |  |  |  |  | 5.74 | 5.44 | 5.15 | 5.09 | 
15 | CCOc1ccc(-c2cc3ccc(N)nc3[nH]2)cc1 [Compound 36, 2-(4-ethoxyphenyl)-1H-pyrrolo[2,3-b]pyridin-6-amine] |  |  |  |  |  | 7.15 | 6.64 | 6.57 | 6.49 | 
16 | CCOc1ccc(-c2cc3ccncc3n2OC(=O)N(CC)CC)cc1 [Compound 34, 2-(4-ethoxyphenyl)-1H-pyrrolo[2,3-c]pyridin-1-yl diethylcarbamate] |  | 5.18 | < 4.30 |  | 4.78 |  |  |  |  | 

Row | SMILES | pEC50 [1, 3] | pEC50 [1, 4] | pEC50 [2, 5] | pEC50 [2, 6] | pEC50 [2, 7] | pEC50 [1, 8] | pEC50 [1, 9] | pEC50 [2, 10] | pEC50 [2, 11] | pEC50 [2, 12]
17 | Oc1ccc(-c2cc3ccc(-c4ccc(O)nc4)nc3[nH]2)cc1 [Compound 40, 5-(2-(4-hydroxyphenyl)-1H-pyrrolo[2,3-b]pyridin-6-yl)pyridin-2-ol] |  |  |  |  |  | 6.02 | 5.30 | 5.30 | 4.88 | 
18 | CCOc1ccc(-c2cc3cccn(Cc4ccc(OC)cc4)c-3n2)cc1 [Compound 27, 2-(4-ethoxyphenyl)-7-(4-methoxybenzyl)-7H-pyrrolo[2,3-b]pyridine] |  |  |  |  |  |  | 5.61 | 5.00 | 5.41 | 5.82
19 | CCOc1ccc(-c2cc3c(Nc4ccccc4)ccnc3[nH]2)cc1 [Compound 14, 2-(4-ethoxyphenyl)-N-phenyl-1H-pyrrolo[2,3-b]pyridin-4-amine] |  |  |  |  |  |  | 5.95 | 6.12 | 5.82 | 6.26
20 | CCOc1ccc(-c2cc3cccnc3n2-c2ccc([N+](=O)[O-])cn2)cc1 [Compound 19, 2-(4-ethoxyphenyl)-1-(5-nitropyridin-2-yl)-1H-pyrrolo[2,3-b]pyridine] |  |  |  |  |  | 5.25 | 4.84 | 4.66 | 4.63 | 4.89
21 | CC(CO)(CO)C(=O)Oc1ccc(-c2cc3cccnc3[nH]2)cc1 [Compound 10, 4-(1H-pyrrolo[2,3-b]pyridin-2-yl)phenyl 3-hydroxy-2-(hydroxymethyl)-2-methylpropanoate] |  |  |  |  |  |  | 4.86 | < 4.30 | < 4.60 | < 4.60
22 | CCOc1ccc(-c2cc3ccc(OC(C)=O)nc3n2C(C)=O)cc1 [Compound 22, 1-acetyl-2-(4-ethoxyphenyl)-1H-pyrrolo[2,3-b]pyridin-6-yl acetate] |  |  |  |  |  | 6.10 | 5.94 | 5.04 | 5.26 | 5.27
23 | CCOc1ccc(-c2cc3c(Cl)ccnc3n2C(=O)OC(C)(C)C)cc1 [Compound 21, tert-butyl 4-chloro-2-(4-ethoxyphenyl)-1H-pyrrolo[2,3-b]pyridine-1-carboxylate] |  |  |  |  |  |  | < 4.60 |  | < 4.60 | < 4.60
24 | CCOc1ccc(-c2cc3c(Nc4ccc(C(=O)c5ccccc5)cc4)ccnc3[nH]2)cc1 [Compound 11, (4-((2-(4-ethoxyphenyl)-1H-pyrrolo[2,3-b]pyridin-4-yl)amino)phenyl)(phenyl)methanone] |  |  |  |  |  |  | 6.82 | 5.94 | 6.49 | 6.85
25 | CCOc1ccc(-c2cc3c(NCc4ccccc4)ccnc3[nH]2)cc1 [Compound 12, N-benzyl-2-(4-ethoxyphenyl)-1H-pyrrolo[2,3-b]pyridin-4-amine] |  |  |  |  |  |  | 6.37 | 6.03 | 6.04 | 6.30
26 | Cn1c(-c2ccc(O)cc2)cc2ccccc21 [Compound 33, 4-(1-methyl-1H-indol-2-yl)phenol] |  |  |  |  |  |  |  | 4.97 | 4.49 | 4.80
27 | CCOc1ccc(-c2cc3c(Nc4ccccc4)ccnc3n2S(=O)(=O)c2ccccc2)cc1 [Compound 43, 2-(4-ethoxyphenyl)-N-phenyl-1-(phenylsulfonyl)-1H-pyrrolo[2,3-b]pyridin-4-amine] |  |  |  |  |  | 5.87 | 5.79 | 5.63 | 6.28 | 
28 | c1ccc(COc2ccc(-c3cc4ccccc4[nH]3)cc2)cc1 [Compound 31, 2-(4-(benzyloxy)phenyl)-1H-indole] |  |  | < 4.60 |  | < 4.82 |  |  |  |  | 
29 | COc1ccc(-c2cc3ccccc3[nH]2)cc1 [Compound 2, 2-(4-methoxyphenyl)-1H-indole] | 5.54 | 5.13 | 5.10 | 5.58 | 4.34 |  |  |  |  | 
30 | Oc1ccc(-c2cc3cc(Br)ccc3[nH]2)cc1 [Compound 30, 4-(5-bromo-TH-indol-2-yl)phenol] |  |  | 5.12 |  | 5.12 |  |  |  |  | 
31 | COc1ccc(-c2cc3ccccc3n2O)cc1 [Compound 3, 2-(4-methoxyphenyl)-1H-indol-1-ol] |  |  |  |  |  |  |  | 6.49 | 6.04 | 5.95
